Measurements from publication PMC10648875 (Antimicrobial Agents and Chemotherapy, 2023).
In brackets after ≈: the same amount, converted by molar mass.

Tests used:
PAM4878 producing TEM-10 = test: MIC, engineered isogenic strain; type: cell-based, P. aeruginosa; details: TEM-10, class A; BLIs at fixed 4 µg/mL
PAM4907 producing PER-4 = test: MIC, engineered isogenic strain; type: cell-based, P. aeruginosa; details: PER-4, class A; BLIs at fixed 4 µg/mL
PAM4876 producing OXA-72 = test: MIC, engineered isogenic strain; type: cell-based, P. aeruginosa; details: OXA-72, class D; BLIs at fixed 4 µg/mL
PAM4175 (no β-lactamase) = test: MIC, engineered isogenic strain; type: cell-based, P. aeruginosa; details: BLIs at fixed 4 µg/mL
PAM4874 producing SHV-12 = test: MIC, engineered isogenic strain; type: cell-based, P. aeruginosa; details: SHV-12, class A; BLIs at fixed 4 µg/mL
PAM4792 producing OXA-2 = test: MIC, engineered isogenic strain; type: cell-based, P. aeruginosa; details: OXA-2, class D; BLIs at fixed 4 µg/mL
[1] = tested on: Klebsiella pneumoniae ATCC 700603 (KPM2881), SHV-18; parameters: method as in earlier work; details: quality control range; ref CLSI; cited from earlier work
[2] = tested on: Escherichia coli NCTC 13353 (ECM7514), CTX-M-15; parameters: method as in earlier work; details: quality control range; ref CLSI; cited from earlier work
[3] = tested on: K. pneumoniae ATCC BAA-2814 (KP1074), KPC-3; parameters: method as in earlier work; details: quality control range; ref CLSI; cited from earlier work
[4] = tested on: K. pneumoniae ATCC BAA-1705 (KPM1123), KPC-2; parameters: method as in earlier work; details: quality control range; ref CLSI; cited from earlier work
IMP-26 = IMP-26 (Pseudomonas aeruginosa, UniProt D0V558); test: Ki of metallo-β-lactamase inhibition, purified enzyme; type: biochemical; details: 10-minute preincubation; nitrocefin substrate
IMP-1 = IMP-1 (Serratia marcescens, UniProt P52699); test: as above; type: biochemical; details: 10-minute preincubation; imipenem substrate; read-out: Ki
SHV-12 = SHV-12 (Klebsiella pneumoniae, UniProt P0AD64, E235K/G234S/L31Q); test: Ki app of β-lactamase inhibition, purified enzyme; type: biochemical; details: 10-minute preincubation; nitrocefin substrate; read-out: Ki app
Procedure: (§1) The majority of purified β-lactamase enzymes used in the study were either expressed and purified internally ([35]) or obtained from Emerald Biostructures (Bainbridge Island, WA, USA). L1 enzyme was purified as described in reference ([36]).
(§2) Enzymes were mixed with BLIs at concentrations varying from 160 to 0.0027 µM in 50-mM Na-phosphate pH7.0, 0.1-mg/mL bovide serum albumin (BSA) (buffer A; 20-µM ZnCl2 was also added for all metalloenzymes) and incubated for 10 minutes at 37°C. Nitrocefin (50 µM) (10 µM for SHV-12) or 100 µM of imipenem (prewarmed at 37°C for 10 minutes) was added, and substrate cleavage profiles were recorded at 37°C at 490 nm every 10 seconds for 10 minutes or at 294 nm every 30 seconds for 1 hour for nitrocefin and imipenem, respectively. […] Ki app values (Ki for metalloenzymes) were calculated by the method of Waley ([37]).

[5] = parameters: method as in PMID 31871094; details: cited from earlier work
[6] = cited from earlier work
KPC-2 = KPC-2 (Klebsiella pneumoniae, UniProt Q9F663); test: Ki app of β-lactamase inhibition, purified enzyme; type: biochemical; details: 10-minute preincubation; nitrocefin substrate
Procedure: as §1, §2

[7] = tested on: NDM-9 (lysate of NDM-9-producing strain); details: read-out: IC50 of inhibition of imipenem hydrolysis in cell lysates; cited from earlier work

Sequence of IMP-1 (P52699 19-246 limits assumed): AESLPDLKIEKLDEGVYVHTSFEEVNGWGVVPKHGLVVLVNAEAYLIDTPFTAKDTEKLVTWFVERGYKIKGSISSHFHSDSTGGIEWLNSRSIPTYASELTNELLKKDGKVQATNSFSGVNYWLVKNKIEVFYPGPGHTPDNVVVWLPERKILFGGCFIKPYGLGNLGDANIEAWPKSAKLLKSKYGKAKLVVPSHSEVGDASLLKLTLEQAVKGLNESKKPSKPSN
Sequence of SHV-12 (P0AD64 22-286 L31Q/G234S/E235K): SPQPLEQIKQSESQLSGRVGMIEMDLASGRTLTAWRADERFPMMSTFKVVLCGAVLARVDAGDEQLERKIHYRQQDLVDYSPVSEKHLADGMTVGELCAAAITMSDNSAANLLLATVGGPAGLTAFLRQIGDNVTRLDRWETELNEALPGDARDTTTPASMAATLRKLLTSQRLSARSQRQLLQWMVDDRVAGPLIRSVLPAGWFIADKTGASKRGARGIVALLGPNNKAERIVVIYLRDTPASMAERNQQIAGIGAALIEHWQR
Sequence of KPC-2 (Q9F663 25-293 limits assumed): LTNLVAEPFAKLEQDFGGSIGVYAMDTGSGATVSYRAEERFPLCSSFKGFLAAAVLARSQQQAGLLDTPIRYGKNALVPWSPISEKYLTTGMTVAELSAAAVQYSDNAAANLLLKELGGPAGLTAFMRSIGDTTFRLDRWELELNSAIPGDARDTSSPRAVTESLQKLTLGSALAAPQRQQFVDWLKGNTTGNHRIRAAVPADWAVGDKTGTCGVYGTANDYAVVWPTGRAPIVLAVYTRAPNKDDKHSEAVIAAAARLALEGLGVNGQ
Sequence of IMP-26 (D0V558 entry or part of it): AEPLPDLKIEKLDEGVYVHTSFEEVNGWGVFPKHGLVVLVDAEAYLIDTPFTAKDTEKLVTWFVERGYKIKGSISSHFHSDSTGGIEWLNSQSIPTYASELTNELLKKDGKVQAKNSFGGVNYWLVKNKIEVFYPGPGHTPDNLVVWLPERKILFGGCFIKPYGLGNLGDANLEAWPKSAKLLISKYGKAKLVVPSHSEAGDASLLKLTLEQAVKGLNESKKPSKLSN

Row | SMILES | MIC (PAM4878 producing TEM-10) [µg/mL] | MIC (PAM4907 producing PER-4) [µg/mL] | MIC (PAM4876 producing OXA-72) [µg/mL] | MIC (PAM4175 (no β-lactamase)) | MIC (PAM4874 producing SHV-12) [µg/mL] | MIC (PAM4792 producing OXA-2) [µg/mL] | also measured
1 | CO/N=C(\C(=O)N[C@@H]1C(=O)N2C(C(=O)[O-])=C(C[N+]3(C)CCCC3)CS[C@H]12)c1csc(N)n1 [FEP, cefepime] | 16 (≈ 33.3 µM) | 64 (≈ 133 µM) | 2 (≈ 4.16 µM) | 0.25 µg/mL (≈ 0.52 µM) | 64 (≈ 133 µM) | 0.5 (≈ 1.04 µM) | CLSI approved MIC range [1]: 0.5 to 2 µg/mL; CLSI approved MIC range [2]: > 64 µg/mL
2 | C[C@@H](O)[C@H]1C(=O)N2C(C(=O)O)=C(S[C@@H]3CN[C@H](C(=O)N(C)C)C3)[C@H](C)[C@H]12 [MEM, meropenem] | 0.125 (≈ 0.326 µM) | 0.125 (≈ 0.326 µM) | 2 (≈ 5.22 µM) | 0.125 ^ a | 0.25 (≈ 0.652 µM) | 2 (≈ 5.22 µM) | CLSI approved MIC range [3]: 32 to 256 µg/mL; CLSI approved MIC range [4]: 8.0 to 64 µg/mL
3 | NCCN[C@H]1CC[C@H](CC(=O)N[C@H]2Cc3cccc(C(=O)O)c3OB2O)CC1 [Taniborbactam, taniborbactam] | – | – | – | – | – | – | Ki (IMP-26): > 20 µM; Ki (IMP-1): > 20 µM; Ki (SHV-12): 0.00015 ± 3e-05 µM; concentration at which direct antibacterial activity is lacking [5]: > 512 µg/mL
4 | O=C(O)c1c(F)ccc2c1OB(O)[C@@H]1C[C@H]21 [Xeruborbactam, xeruborbactam] | – | – | – | – | – | – | steady-state plasma concentration ([6]; phase I subjects, 500-mg loading dose then 250 mg every 8 hours by 3-hour infusion): ~ 7 µg/mL; safety and tolerability ([6]; phase I, intravenous or oral (prodrug), doses of 1,000 mg/day or less): safe and well tolerated; Ki (KPC-2): 0.0014 ± 0.0002 µM; IC50 [7]: 1.2 ± 0.1 µM
